What all share (type): cell-based
The test system of one data set is IE2. Description: Quantitative Western blot of IE2 expression during CMV infection. The following applies: pre-treatment with activator vs untreated control. As for the experimental part: (§1) MRC5 fibroblasts and life-extended human foreskin fibroblasts (HFFs) (Bresnahan and Shenk, 2000) were maintained in Dulbecco's Modified Eagle's Medium (DMEM) supplemented with 10% fetal bovine serum (FBS) and 50 U/ml penicillin-streptomycin at 37° C. and 5% CO2 in a humidified incubator. ARPE-19 cells were maintained in a 1:1 mixture of DMEM/F-12 (Mediatech Inc.) with 10% FBS (HyClone) and 50 U/ml Penicillin-Streptomycin (Mediatech Inc.). Cells were pretreated in a final concentration of 1 mM VPA (Calbiochem).
MRC5s at ˜60% confluency were infected at MOI=1. To synchronize viral entry, adsorption was done at 4° C. for 30 min., cells washed once in PBS (Mediatech, Inc.), fresh media added, and cells placed at a 37° C. in a humidified CO2 incubator. Time points were collected every 1-2 hrs for 20-24 hrs as indicated. Sample collection, protein transfer, and blot preparation were as previously described (Bolovan-Fritts et al., 2004) and samples were loaded and separated on precast SDS PAGE 10% or 7.5% bisacrylamide gels (BioRad).
For quantitative IE2 detection, the 1° antibody MAB810 (Millipore) was used at 1:100 and 2° antibody 926-32212 (LI-COR™) was used at a dilution of 1:20,000. For normalization, anti-beta tubulin antibody 26-42211 (LI-COR™) used at a dilution of 1:2000 followed by 2′ antibody 926-68073 (LI-COR™) at a dilution of 1:20,000. Blots were scanned and quantified on a LI-COR™ Odyssey™ according to manufacturer's protocols.
A general note: A western blot detects proteins with antibodies after separation by electrophoresis.

The subject of a further data set is IE2-YFP. Description: Single-cell time-lapse fluorescence microscopy of IE2-YFP levels, CMV IE2-YFP virus. The following applies: pretreatment with activator vs untreated control. As for the experimental part: as §1
Life-extended HFFs and PML knockdown HFFs (a gift from Roger Everett) were passed onto a 96-well glass-bottom plate (Thermo Fisher Scientific) and grown to confluency to hold cells in the G0. Cells were synchronously infected on ice for 30 mins at MOI=1 (infection with mutant was done at room temperature). Live cells were imaged using a 20× oil objective on a spinning-disk confocal microscope (Olympus DSU™) equipped with a 37° C., humidified, 5% CO2 live-cell chamber. Image collection began when YFP signal was first detected and frames were captured every 10 minutes for 16-24 hours using an exposure time between 200 and 800 msec. Single-cell tracking and segmentation were performed with custom-written code in MatLab™ (Mathworks) as previously described (Weinberger et al., 2008). Homo-FRET imaging was performed as previously described (Weinberger and Shenk, 2007).

The next data set deals with CMV IE2-YFP virus. Description: Viral replication kinetics (titer), CMV IE2-YFP virus. The following applies: for replication fitness of the parent virus (toxicity of exposure alone): VPA or TSA exposure. As for the experimental part:
as §1
(§2) Confluent MRC5 monolayers at ˜5×10^4 cells per well were infected at indicated MOIs using 0.45 μm pre-filtered virus inoculum stocks diluted in culture media. Inoculums were calculated based on plaque-assay titrations (Bolovan-Fritts and Wiedeman, 2001), shown as time point 0 in each figure. Inoculum was then removed and replaced with 1 mL fresh media. Infected wells were collected in triplicate at indicated time points and stored at −80° C. To measure replication, samples were thawed and prepared as a 10-fold serial-dilution series in culture media, analyzed by TCID50, then converted to PFU/ml. Error ranges were calculated by standard deviation.

The subject of data set [1] is MIEP-GFP control cells (MIEP-mCherry-IRES-GFP circuit, ARPE-19). Description: Flow cytometry of GFP in non-feedback MIEP-GFP control cells. Particulars: for GFP median fluorescence intensity: 10 ng/ml TNF-α, 400 nM TSA, or 1 mM VPA. The source says: (§3) Mathematica™ (Wolfram Research) was used for closed-loop analysis. Standard lentiviral cloning was used to create minimal MIE circuits (Dull et al., 1998). The minimal MIEP-IE2-GFP and MIEP-GFP circuits are driven by a full-length ˜2.5 kb MIE promoter-enhancer (MIEP) that spans the sequence from the MIEP modulator at the 5′ edge to the junction of IE exons 1 and 2. The MIEP was PCR-cloned from AD169 into pLEIGW (a gift from Thor Lemishka) in place of the EF1a promoter. This full-length MIEP drives an IE2-IRES-GFP or mCherry-IRES-GFP cassette. IE2 was cloned from pRSV-IE86 (a gift from Jay Nelson). ARPE-19 cells were infected and FACS sorted for GFP to create stably expressing cell lines. Cells were treated with TSA for 17 hours, and GFP expression was quantified by flow cytometry. Live cells were gated by forward-versus-side scattering on a FacsCalibur™ cytometer (BD Biosciences) and mean fluorescence intensity recorded. At least 20,000 live cells were recorded for each experiment and data was analyzed in FlowJo™ (Treestar Inc.).
Cell lines (ARPE-19 cells) expressing IE2-GFP from MIE promoter (MIEP) (referred to as “MIEP-IE2-GFP cells”) were tested, in comparison to a cell line expressing MIEP-GFP control (referred to as “MIEP-GFP control cells). MIEP-IE2-GFP cells and MIEP-GFP control cells were treated with 10 ng/ml TNF-α, 400 nM TSA, or 1 mM VPA in MIEP-IE2-GFP cells. The data are depicted in FIG. 33.
(Flow cytometry measures light scatter and fluorescence of single cells or particles in a stream.)

For data set [2], the system named is MIEP-IE2-GFP cells (MIEP-IE2-IRES-GFP circuit, ARPE-19). Description: Flow cytometry of GFP in negative-feedback MIEP-IE2-GFP cells. Particulars: different levels of activation by TSA treatment, 17 hours.
Description: as §3
Cell lines (ARPE-19 cells) expressing IE2-GFP from MIE promoter (MIEP) (referred to as “MIEP-IE2-GFP cells”) were tested, in comparison to a cell line expressing MIEP-GFP control (referred to as “MIEP-GFP control cells). MIEP-IE2-GFP cells and MIEP-GFP control cells were treated with 10 ng/ml TNF-α, 400 nM TSA, or 1 mM VPA in MIEP-IE2-GFP cells. […]

For data set [3], the system named is cells expressing the wild-type accelerator circuit MIEP-IE2-IRES-GFP. Description: Percentage of live cells by flow cytometry, wild-type accelerator circuit cells. The following applies: after 14 days of TSA treatment. As for the experimental part:
(§4) MIEPΔcrs-IE2-GFP was constructed by PCR cloning MIEPΔcrs from the CMV Δcrs IE2-YFP bacmid and inserted into MIEP-IE2-GFP. ARPE-19 cells were transduced with the MIEP-IE2-GFP and MIEPΔcrs-IE2-GFP vectors and FACS sorted for GFP. The transduced cell lines were allowed to recover for 24 hours before the percentage of GFP-expressing cells for each cell line was quantified. Live cells were gated by forward versus side scattering on a FacsCalibur cytometer. On the first day after recovery, 2,500 GFP events were recorded. Subsequently, at least 10,000 GFP events were recorded for each experiment and analyzed using FlowJo™. For genomic PCR, genomic DNA was purified using a NucleoSpin Tissue kit (Clontech).

In data set [4] the test system is cells expressing the mutant amplifier circuit MIEPΔcrs-IE2-IRES-GFP. The following applies: after 14 days of TSA treatment. As for the experimental part: as §4
For data set [5], the system named is low-passage clinical CMV isolate TB40-E. Description: Viral replication (titer), clinical isolate TB40-E. As for the experimental part: as §2
The next data set deals with CMV Δcrs mutant virus. Description: Replicative fitness of the CMV Δcrs mutant virus (PFU/ml). The following applies: 72-hour VPA treatment, PFU/ml on day 10 after infection at MOI=1. As for the experimental part: The CMV GFP control virus (Yu et al., 2003) encodes an SV40 promoter-EGFP cassette. The CMV […] IE2-YFP virus was constructed from the CMV IE2-YFP background as described (Cuevas-Bennett and Shenk, 2008). Viral stocks were titered by TCID50 (Nevels et al., 2004). To verify the integrity of the CMV Δcrs IE2-YFP virus, a rescue virus, CMV ΔcrsREVERT IE2-YFP, was constructed by homologous recombination, whereby CMV Δcrs IE2-YFP BAC DNA (20 μg) and a ˜2.5 kb wild-type MIEP DNA fragment (2.5 μg) were co-transfected by electroporation into 10^6 MRC5 cells, and subjected to two rounds of plaque purification.
as §2

Results on three compounds are retold here after patent US10106817B2, “Compositions and methods of use thereof for identifying anti-viral agents” (priority 2013, dated 2018).

Entries after “also recorded” stand apart in the source; their conditions may differ.

Regarding `CC(/C=C/C(=O)NO)=C\[C@@H](C)C(=O)c1ccc(N(C)C)cc1` [TSA, Trichostatin A], the “IE2 protein levels (amplification)” value with IE2 is listed as “do not amplify IE2 protein levels”. Besides, in the data set on IE2, the “rate of IE2 expression (acceleration)” value was “accelerate IE2 expression”. Further, the “rate of IE2 expression in single cells (time to steady-state)” value (from here on “rate of IE2 expression in single cells”) in the data set with IE2-YFP was “significantly accelerates IE2 expression in single cells”. Moreover, the “steady-state IE2 levels in single cells” value with IE2-YFP is “does not amplify steady-state IE2 levels”. Moreover, in the data set on CMV IE2-YFP virus, the “replication fitness of the parent virus (toxicity of exposure alone)” value is “neither activator reduces replication fitness”. In addition, the “GFP median fluorescence intensity” value in data set [1] is listed as “significantly increased”. Moreover, the “GFP steady-state level as a function of activation (closed-loop dose-response)” value in data set [1] (different levels of activation by TSA treatment, 17 hours) was “linear increase in final level”; in data set [2], “saturation in steady-state level”. Besides, the “viability (percentage of live cells)” value in data set [3] is recorded as “little effect on viability”; in [4] it was “significantly decreased viability”.
`CCCC(CCC)C(=O)O` [VPA, Valproic Acid]: in the data set on IE2, the “IE2 protein levels (amplification)” value was “do not amplify IE2 protein levels; also recorded: no amplification in IE2 levels” and the “rate of IE2 expression (acceleration)” value was “accelerate IE2 expression; also recorded: acceleration”. In the data set with IE2-YFP, the “rate of IE2 expression in single cells” value is listed as “significantly accelerates IE2 expression in single cells; also recorded: decreases time to steady-state” and the “steady-state IE2 levels in single cells” value is recorded as “does not amplify steady-state IE2 levels; also recorded: without increasing steady-state IE2-YFP levels”. The “increase in viral replication compared to the untreated control” value in the data set on CMV IE2-YFP virus (72-hour VPA pre-treatment, after the first round of viral maturation (~96 hours), MOI=1) is on record as “approximately five”. In addition, in the data set on CMV IE2-YFP virus, the “replication fitness of the parent virus (toxicity of exposure alone)” value is listed as “neither activator reduces replication fitness”. Besides, in data set [5], the increase in titer result is listed as “nine”. Further, the “replication of the mutant amplifier virus” value in the data set with CMV Δcrs mutant virus was “Decreased replication”. Besides, in data set [1], the “GFP median fluorescence intensity” value is “significantly increased”.
Take Tumor Necrosis Factor Alpha [TNF-α]: in the data set with IE2, the “IE2 protein levels (amplification)” value is “do not amplify IE2 protein levels” and the “rate of IE2 expression (acceleration)” value is on record as “accelerate IE2 expression”. In addition, in the data set with IE2-YFP, the “rate of IE2 expression in single cells” value is on record as “significantly accelerates IE2 expression in single cells” and the “steady-state IE2 levels in single cells” value is on record as “does not amplify steady-state IE2 levels”. Also, the “GFP median fluorescence intensity” value in [1] was “significantly increased”.
